Legend:
C57BL/6N mice = test: Naltrexone-precipitated withdrawal syndrome; format: in vivo; details: twice daily sc. for 7 days, KGFF09 7.4 μmol/kg; in comparison to the other compounds
Protocol: On day 7, two hours after the last drug injection, the withdrawal syndrome was precipitated by administration of naltrexone (5 mg/kg, sc.) and evaluated over 30 min. Jumping, paw tremors and wet dog shakes were recorded as number of events occurring during the total test time. Diarrhea was checked for 30 min with one point given for any signs of it during each 5 min period (maximum score: 6). Body weight was measured immediately before and after each 30 min test session, and percentage of body weight lost during the test was calculated. For each mouse, a global opiate withdrawal score was also calculated by summing the values obtained for each sign. For this purpose one point was assigned to every 3 jumps and 5 paw tremors, respectively, whereas all other signs were given the absolute values recorded during the test.

human NPFF1R = human NPFF1R (Homo sapiens, UniProt Q9GZQ6); test: Radioligand competition binding with [125I]-1-DMe-NPFF; parameters: expressed in transfected cells; HEK293-Glo20F cells (cAMP)
Sequence of human NPFF1R (Q9GZQ6 whole entry): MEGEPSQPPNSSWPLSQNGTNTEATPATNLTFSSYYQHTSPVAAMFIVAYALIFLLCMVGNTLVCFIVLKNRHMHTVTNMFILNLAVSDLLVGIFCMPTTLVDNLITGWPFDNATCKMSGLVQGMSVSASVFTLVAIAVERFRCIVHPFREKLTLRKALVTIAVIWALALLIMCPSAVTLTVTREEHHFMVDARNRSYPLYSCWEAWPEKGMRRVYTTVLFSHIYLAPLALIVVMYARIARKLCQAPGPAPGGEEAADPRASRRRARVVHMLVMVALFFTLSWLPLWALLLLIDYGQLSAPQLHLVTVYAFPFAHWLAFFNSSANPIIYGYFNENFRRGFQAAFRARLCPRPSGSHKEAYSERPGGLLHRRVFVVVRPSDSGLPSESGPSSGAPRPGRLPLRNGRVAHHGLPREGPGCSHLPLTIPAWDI

NPFF2R = NPFF2R (Homo sapiens, UniProt Q9Y5X5); test: as above; parameters: expressed in transfected cells; HEK293-Glo20F cells (cAMP)
Sequence of NPFF2R (Q9Y5X5 whole entry): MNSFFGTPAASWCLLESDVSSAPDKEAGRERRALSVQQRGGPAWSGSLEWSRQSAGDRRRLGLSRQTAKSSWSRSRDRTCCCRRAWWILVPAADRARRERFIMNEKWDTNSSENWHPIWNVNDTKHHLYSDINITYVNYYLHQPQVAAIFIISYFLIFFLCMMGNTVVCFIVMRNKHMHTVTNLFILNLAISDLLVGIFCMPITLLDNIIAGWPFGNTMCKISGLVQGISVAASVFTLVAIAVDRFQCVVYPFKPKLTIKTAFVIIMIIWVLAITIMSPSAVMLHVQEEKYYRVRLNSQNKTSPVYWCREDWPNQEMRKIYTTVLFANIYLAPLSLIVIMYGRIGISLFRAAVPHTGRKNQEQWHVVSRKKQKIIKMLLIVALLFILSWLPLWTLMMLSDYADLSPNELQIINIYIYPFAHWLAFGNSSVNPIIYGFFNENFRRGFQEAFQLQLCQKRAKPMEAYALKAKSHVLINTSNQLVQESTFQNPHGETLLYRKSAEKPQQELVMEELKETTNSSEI

SMILES | global opiate withdrawal score, reduced to (C57BL/6N mice) | Ki (human NPFF1R) [µM] | Ki (NPFF2R) [µM]
Cc1cc(O)cc(C)c1C[C@H](N)C(=O)N[C@H](CCCNC(=N)N)C(=O)N[C@H]1Cc2ccccc2CN(CCC(=O)N[C@@H](CCCN2CCC(Cc3ccccc3)CC2)C(=O)N[C@@H](Cc2ccccc2)C(N)=O)C1=O [KGFF09, H-Dmt-D-Arg-Aba-β-Ala-Bpa-Phe-NH2] | circa 50% |  | 
Cc1cc(O)cc(C)c1C[C@H](N)C(=O)N[C@H](CCCNC(=N)N)C(=O)N[C@H]1Cc2ccccc2CN(CCC(N)=O)C1=O [KGOP01, reference compound] |  | 4.6 | 4.5
